In PubChem BioAssay AID1895 (NMMLSC, 2009):
Calls of active or inactive are those of the source. How the calls were made is not given here.

Target: MEK5 PB1 domain binding to MEKK2 (MAP3K2) mutant PB1, human
Test: mutant MEKK2 PB1-MEK5 interaction blockers – biochemical, bead multiplex flow cytometry, dose response (AID 1895)
Details: Bead-based multiplex flow cytometry; for Ki: measured here: Ki for PB1 binding

| SMILES | EC50 | Ki [µM] |
| --- | --- | --- |
| CCC(/C=C1\Sc2ccc(OC)cc2N1CC)=C\c1sc2ccc(OC)cc2[n+]1CCCS(=O)(=O)[O-] | > 30 µM (inactive) |  |
| O=C(OCC1O[C@@H](OC(=O)c2cc(O)c(O)c(O)c2)[C@@H](OC(=O)c2cc(O)c(O)c(O)c2)[C@@H](OC(=O)c2cc(O)c(O)c(O)c2)[C@@H]1OC(=O)c1cc(O)c(O)c(O)c1)c1cc(O)c(O)c(O)c1 (stereo not given in full) | > 30 µM (inactive) |  |
| CCc1ccc(Nc2n[n+](-c3ccccc3)c(-c3ccc(OC)c(Br)c3)s2)cc1 | 4.62 µM |  |
| CC(=O)c1c(C)[nH]c(C(=O)NC2=NCCS2)c1C | > 30 µM (inactive) |  |
| CCCN(CCC)CCNC(=O)c1cc2c(-c3ccc(Cl)cc3)nn(C)c2s1 | 11.2 µM |  |
| CCN(CC)CCOC(=O)c1ccc(N/C=C(/C#N)c2nc(-c3cccc(OC)c3)cs2)cc1 | > 30 µM (inactive) |  |
| NC(=NCCCCCCN=C(N)/N=C(\N)Nc1ccc(Cl)cc1)/N=C(\N)Nc1ccc(Cl)cc1 | > 30 µM (inactive) |  |
| CCCCCc1cc(=O)oc2c(C(CCN3CCCC(C)C3)c3ccc(OC)cc3)c(OC)cc(OC)c12 (stereo not given) | 12 µM |  |
| Cc1ccc(-n2cc(CNCCCn3ccnc3C)c(-c3ccc(F)cc3)n2)cc1 | > 30 µM (inactive) |  |
| CCN1/C(=C/c2ccc3cc(C)cc(C)c3[n+]2CC)Sc2cc(C)ccc21 | 1.77 µM | 1.73 |
| Cc1nc(N)sc1-c1csc(Nc2ncccn2)n1 | > 30 µM (inactive) |  |
| CNC[C@H](CC1CCCCC1)NC[C@H](Cc1ccccc1)NCCC12CC3CC(CC(C3)C1)C2 | > 30 µM (inactive) |  |
| CCN(CC)CCOC(=O)c1ccc(N/C=C(/C#N)c2nc(-c3ccc(OC)cc3)cs2)cc1 | > 30 µM (inactive) |  |
| CCN(CC)CCOC(=O)c1ccc(N/C=C(/C#N)c2nc(-c3ccc(OC)c(OC)c3)cs2)cc1 | > 30 µM (inactive) |  |
| COc1ccc(-c2csc(N(CCCN(C)C)C(=O)c3ccccc3Cl)n2)cc1 | > 30 µM (inactive) |  |
| CCN(CC)CCOc1ccc2c(c1)C(=NNC(=O)c1ccccn1)c1cc(OCCN(CC)CC)ccc1-2 | 5.52 µM |  |
| CN(C)CCCNc1cc(C(C)(C)C)nc2c(-c3ccc(Cl)cc3)cnn12 | > 30 µM (inactive) |  |
| CCN1/C(=C/c2ccc3cc(C)ccc3[n+]2CC)Sc2cc(C)c(C)cc21 | > 30 µM (inactive) |  |
| Nc1cc2nc[nH]c2cc1N | inactive | 5.77 |

| SMILES | EC50 | Ki [µM] |
| --- | --- | --- |
| CN(C)c1ccc(/C=C/C=C2/SC(=S)N(c3ccccc3)C2=O)cc1 | inactive |  |
| Nc1ccc2nc(-c3ccc(-c4nc5ccc(N)cc5[nH]4)cc3)[nH]c2c1 | > 30 µM (inactive) |  |
| Nc1ccc(Nc2ccccc2N)cc1 | > 30 µM (inactive) |  |
| COc1ccc2nc(C)cc(N/N=C/c3ccc(F)cc3)c2c1 | > 30 µM (inactive) |  |
| Brc1ccc(N=C/C=C/C=C/Nc2ccc(Br)cc2)cc1 | > 30 µM (inactive) |  |
| CCN1/C(=C/c2ccc3cc(C)ccc3[n+]2C)Sc2ccc3sccc3c21 | > 30 µM (inactive) |  |
| CCCOc1ccc2c(c1)C(=NN=C(N)N)c1cc(OCCC)ccc1-2 | 9.98 µM |  |
| C=CCN1C(=O)/C(=C/c2ccc(-c3ccc(F)cc3)o2)SC1=S | inactive |  |
| CCN1/C(=C\c2ccc3cc(C)ccc3[n+]2CC)Sc2cc(C)c(C)cc21 | > 30 µM (inactive) |  |
| COc1ccc(CSc2n[nH]c(C)n2)cc1[N+](=O)[O-] | > 30 µM (inactive) |  |
| c1ccc(CNc2nc(NCc3ccccc3)c3ccccc3n2)cc1 | > 30 µM (inactive) |  |
| Cc1nn2c(N)csc2nc1=O | inactive | 3.34 |
| NC(N)=N/N=C/c1ccc(OCc2ccc(Cl)cc2Cl)cc1 | 2.66 µM |  |
| O=C1c2ccccc2-c2onc3ccc(NCc4ccco4)c1c23 | > 30 µM (inactive) |  |
| CCN1/C(=C/C=C/C=C/C=C/c2sc3ccccc3[n+]2CC)Sc2ccccc21 | > 30 µM (inactive) |  |
| CN(C)c1ccc(NC(=O)CN2CCC(O)(c3ccccc3)CC2)cc1 | > 30 µM (inactive) |  |
| S=c1[nH]nc(-c2ccc(Cl)cc2)n1-c1ccc2c(c1)OCCO2 | > 30 µM (inactive) |  |
| O=C(NNc1c2ccccc2nc2ccccc12)c1cc2ccccc2cc1O | > 30 µM (inactive) |  |

Next, values leading:

| EC50 | Ki [µM] | SMILES |
| --- | --- | --- |
| > 30 µM (inactive) |  | COc1ccc(-c2[nH]ncc2CN2CCCCCCC2)c(OC)c1 |
| inactive | 2.87 | Cc1cc2ccccc2n1CCNC(=O)c1ccc(Br)o1 |
| 21.5 µM |  | CCCCCCCCCCOC(=O)Cn1c(COc2cccc(OC)c2)[n+](C)c2ccccc21 |
| > 30 µM (inactive) |  | C#CCOCCOCCOCCNc1nc(N2CCN(C(=O)[C@H](Cc3ccc(O)cc3)n3cc([C@@H](N)C(C)CC)nn3)CC2)nc(N2CCN(C(=O)[C@H](Cc3cc4ccccc4[nH]3)n3cc([C@@H](N)Cc4ccc(O)cc4)nn3)CC2)n1 (stereo not given in full) |
| 4.1 µM |  | C#CCOCCOCCOCCNc1nc(N2CCN(C(=O)C(Cc3cc4ccccc4[nH]3)n3cc(C(N)C(C)CC)nn3)CC2)nc(N2CCN(C(=O)C(Cc3cc4ccccc4[nH]3)n3cc(C(N)C(C)CC)nn3)CC2)n1 (stereo not given) |
| > 30 µM (inactive) |  | COCCNC(=O)CN(c1cc(Cl)ccc1OC)S(=O)(=O)c1ccc(C)c([N+](=O)[O-])c1 |
| > 30 µM (inactive) |  | CCN1CCN(Cc2ccc(NC(=O)c3ccc(C)c(NC(=O)C(=O)c4c[nH]c5ccccc45)c3)cc2C(F)(F)F)CC1 |
| 7.1 µM |  | CSc1cccc(NC(=S)N(CCCN2CCCC2)Cc2cccn2Cc2ccc(Cl)cc2)c1 |
| 1.02 µM |  | CCCCCCCCCCOC(=O)Cn1c(COc2ccccc2C)[n+](C)c2ccccc21 |
| 25.1 µM |  | C#CCOCCOCCOCCNc1nc(N2CCN(C(=O)[C@H](Cc3ccc(O)cc3)n3cc([C@@H](N)CC(C)C)nn3)CC2)nc(N2CCN(C(=O)[C@H](Cc3ccc(O)cc3)n3cc([C@@H](N)CC(C)C)nn3)CC2)n1 |
| 3.78 µM |  | C#CCOCCOCCOCCNc1nc(N2CCN(C(=O)[C@H](Cc3cc4ccccc4[nH]3)n3cc([C@@H](N)C(C)CC)nn3)CC2)nc(N2CCN(C(=O)[C@H](Cc3cc4ccccc4[nH]3)n3cc([C@@H](N)Cc4ccc(O)cc4)nn3)CC2)n1 (stereo not given in full) |
| > 30 µM (inactive) |  | O=C(CCCC(=O)N(CC(=O)NC1CCCC1)C1CCCC1)Nc1ccccn1 |
| 6.53 µM |  | CCN1CCN(CCNC(=O)c2ccc(/C=C3/Sc4ccccc4N(Cc4cccc(Cl)c4)C3=O)cc2)CC1 |
| > 30 µM (inactive) |  | COc1ccc(NC(=O)N(Cc2cc3cc(C)ccc3[nH]c2=O)CC2CCCO2)cc1 (stereo not given) |
| 8.53 µM |  | N=C(N)SCc1cn(-c2ccccc2)nc1-c1ccc(Br)cc1 |
| > 30 µM (inactive) |  | Cc1ccc(-c2csc(NC(=O)C[n+]3cc(-c4ccc(C)cc4)n4c3CCC4)n2)cc1 |
| 10.6 µM |  | CCN1CCN(CCNC(=O)c2ccc(/C=C3/Sc4ccccc4N(Cc4cccc(C)c4)C3=O)cc2)CC1 |
| 13.2 µM |  | COc1ccc(C2NCCc3c2[nH]c2ccccc32)cc1CN1CCc2cc(OC)c(OC)cc2C1C (stereo not given) |
| > 30 µM (inactive) |  | Cc1cc2ccccc2n1CCNC(=O)c1cccs1 |
| 3.35 µM | 3.28 | CCN1C(c2ccccc2)=C(c2ccccc2)S/C1=C\C=C1/SC(=S)N(C)C1=O |
| > 30 µM (inactive) |  | C#CCOCCOCCOCCNc1nc(N2CCN(C(=O)C(Cc3ccc(O)cc3)n3cc(C(N)CC(C)C)nn3)CC2)nc(N2CCN(C(=O)C(Cc3cc4ccccc4[nH]3)n3cc(C(N)C(C)CC)nn3)CC2)n1 (stereo not given) |

| EC50 | Ki [µM] | SMILES |
| --- | --- | --- |
| > 30 µM (inactive) |  | C#CCOCCOCCOCCNc1nc(N2CCN(C(=O)C([C@@H](C)CC)n3cc(C(N)COC(=O)C(F)(F)F)nn3)CC2)nc(N2CCN(C(=O)[C@H](CCCCN)n3cc(C(N)[C@H](C)CC)nn3)CC2)n1 (stereo not given in full) |
| > 30 µM (inactive) |  | CCCCCCCCCCOC(=O)Cn1c(COc2ccccc2OC)[n+](C)c2ccccc21 |
| 10.1 µM |  | C#CCOCCOCCOCCNc1nc(N2CCN(C(=O)[C@H]([C@@H](C)CC)n3cc([C@@H](N)Cc4ccc(O)cc4)nn3)CC2)nc(N2CCN(C(=O)[C@H](Cc3cc4ccccc4[nH]3)n3cc([C@@H](N)C(C)CC)nn3)CC2)n1 (stereo not given in full) |
| > 30 µM (inactive) |  | CCOc1ccc(C2=C/C(=C/c3cccnc3)C(=O)O2)cc1 |
| 12.8 µM |  | C#CCOCCOCCOCCNc1nc(N2CCN(C(=O)C(Cc3ccc(O)cc3)n3cc(C(N)CC(C)C)nn3)CC2)nc(N2CCN(C(=O)C(Cc3cc4ccccc4[nH]3)n3cc(C(N)Cc4ccc(O)cc4)nn3)CC2)n1 (stereo not given) |
| > 30 µM (inactive) |  | CCN1CCN(Cc2ccc(NC(=O)c3cc(NC(=O)c4cncc(-c5cccs5)c4)cc(OC)c3)cc2C(F)(F)F)CC1 |
| 0.5 µM |  | CCN1CCN(Cc2ccc(NC(=O)c3cc(NC(=O)C(=O)c4c[nH]c5ccccc45)cc(OC)c3)cc2C(F)(F)F)CC1 |
| > 30 µM (inactive) |  | Cc1nc(Nc2cnc(/C=C/c3cc(C(=O)Nc4cccc(C(F)(F)F)c4)ccc3C)cn2)cc(N2CCNCC2)n1 |
| 11.1 µM |  | C#CCOCCOCCOCCNc1nc(N2CCN(C(=O)[C@H](CCCCN)n3cc([C@@H](N)CC(C)C)nn3)CC2)nc(N2CCN(C(=O)[C@H](Cc3cc4ccccc4[nH]3)n3cc([C@@H](N)Cc4ccc(O)cc4)nn3)CC2)n1 |
| 4.92 µM |  | Cc1ccc(CN2CCSc3ccc(C(=O)NC4CCN(Cc5ccccc5)CC4)cc32)cc1 |
| 4.06 µM |  | CN(C)CCNc1ncnc2c1sc1nc(-c3ccccc3)c3c(c12)CCCC3 |
| > 30 µM (inactive) |  | CCOC(=O)N1CCN(c2c(N3CCN(c4ccccc4F)CC3)c(=O)c2=O)CC1 |
| > 30 µM (inactive) |  | CCN1CCN(Cc2ccc(NC(=O)c3cc(NC(=O)c4cnn(-c5ccccc5)c4N)cc(OC)c3)cc2C(F)(F)F)CC1 |
| inactive | 0.95 | CS(=O)(=O)N1N=C(c2ccccc2)CC1c1ccc2c(c1)OCO2 (stereo not given) |
| > 30 µM (inactive) |  | CCn1cc(C(=O)O)c(=O)c2cc(F)c(N3CCN(C(=S)NC(=O)c4ccc(Br)cc4)CC3)cc21 |
| > 30 µM (inactive) |  | CCN1/C(=C/C(C)=C/c2sc3ccccc3[n+]2CC)Sc2ccccc21 |
| 1.44 µM |  | C#CCOCCOCCOCCNc1nc(N2CCN(C(=O)[C@H](Cc3cc4ccccc4[nH]3)n3cc([C@@H](N)CC(C)C)nn3)CC2)nc(N2CCN(C(=O)[C@H](Cc3cc4ccccc4[nH]3)n3cc([C@@H](N)CC(C)C)nn3)CC2)n1 |
| > 30 µM (inactive) |  | Cc1ccc(-c2c[n+](CC(=O)Nc3nc(-c4ccc(F)cc4)cs3)c3n2CCC3)cc1 |
| inactive | 2.03 | O=C1Nc2ccc(Br)cc2/C1=N/N=C/C1=C(N2CCOCC2)C(=C\c2ccccc2)/CC1 |
| > 30 µM (inactive) |  | CN1C(=O)/C(=C\c2ccc(-c3ccccc3)o2)SC1=S |
